Measurements taken from US20020119979A1, “Acyclic compounds and methods for treating multidrug resistance” (priority 2000, published 2002).

Test system: NIH-MDR1-G185 cells
Assay: Fluorescent substrate (BODIPY-FL Taxol) accumulation assay
Assay type: cell-based
Conditions: BODIPY-FL taxol 500 nM, MDR modulator 10 micromolar, 40 min at 37° C.; fluorescence in NIH-MDR1-G185 cells in presence / absence of modulator
Protocol: Fluorescent Substrate Accumulation Assay
NIH-MDR1-GI 85 cells (obtained from M. Gottesman, NI1H) were harvested and resuspended in RPMI-1640 containing L-glutamine, 10% Cosmic Calf Serum and penicillin-streptomycin. Cell suspension aliquots of 175 microliters (1×10^5 cells) were added to individual wells of a 96 well microtiter plate and preincubated for 15 min at 37° C. with 20 microliters MDR modulator diluted in cell culture media to give a final concentration of 10 micromolar. Control wells received no modulating agent. BODIPY-FL Taxol (Molecular Probes, Eugene, Oreg.) was added to each well in 10 microliter aliquots to give a final concentration of 500 nM and cells were incubated for 40 min at 37° C. Cells were centrifuged at 100× g for 5 min at 4° C. and the cell pellet washed with 200 microliters cold PBS to remove fluorescent medium from wells. Cells were centrifuged once more, media removed, and cells resuspended in 200 microliters cold PBS. Fluorescence accumulation was measured in a fluorescence plate reader fitted with an excitation filter of 485 nm and an emission filter of 538 nm. BODIPY-FL taxol accumulation in the cells was calculated as follows:
Accumulation Index=(fluorescence in NIH-MDR1-G185 cells in the presence of modulator)/(fluorescence in NIH-MDR1-G185 cells in absence of modulator) […]

O=C(CCCNC[C@@H](O)COc1cccc2ncccc12)NC(CCCc1ccccc1)CCCc1ccccc1 [Example 25, N-{1-[2-(R)-Hydroxy-3-(quinolin-5-yloxy)-propyl]}-4-aminobutyric acid [4-phenyl-1-(3-phenyl-propyl)-butyl]-amide]
Accumulation Index: 10
